Assay results from ChEMBL document CHEMBL4145521, “Regioselective synthesis of 3,4-diaryl-5-unsubstituted isoxazoles, analogues of natural cytostatic combretastatin A4” (Eur J Med Chem, 2018).

Key:
Type in all cases: functional
[1] = test system: K562; experiment: Cytotoxicity against human K562 cells assessed as cell growth at 10 uM incubated for 48 hrs by sulforhodamine B assay relative to control; conditions: K562, 48 h, read-out: Activity
[2] = test system: SK-OV-3; experiment: Cytotoxicity against human SKOV3 cells assessed as cell growth at 1 uM incubated for 48 hrs by sulforhodamine B assay relative to control; conditions: SK-OV-3, 48 h, read-out: Activity
[3] = test system: NCI-H460; experiment: Cytotoxicity against human NCI-H460 cells assessed as cell growth at 1 uM incubated for 48 hrs by sulforhodamine B assay relative to control; conditions: NCI-H460, 48 h, read-out: Activity
[4] = test system: HCT-116; experiment: Cytotoxicity against human HCT116 cells assessed as cell growth at 1 uM incubated for 48 hrs by sulforhodamine B assay relative to control; conditions: HCT-116, 48 h, read-out: Activity
[5] = test system: OVCAR-8; experiment: Cytotoxicity against human OVCAR8 cells assessed as cell growth at 0.01 uM incubated for 48 hrs by sulforhodamine B assay relative to control; conditions: OVCAR-8, 48 h, read-out: Activity
[6] = test system: MDA-MB-468; experiment: Cytotoxicity against human MDA-MB-468 cells assessed as cell growth at 0.1 uM incubated for 48 hrs by sulforhodamine B assay relative to control; conditions: MDA-MB-468, 48 h, read-out: Activity
[7] = test system: OVCAR-4; experiment: Cytotoxicity against human OVCAR4 cells assessed as cell growth at 1 uM incubated for 48 hrs by sulforhodamine B assay relative to control; conditions: OVCAR-4, 48 h, read-out: Activity
[8] = test system: LOX IMVI; experiment: Cytotoxicity against human LOXIMVI cells assessed as cell growth at 10 uM incubated for 48 hrs by sulforhodamine B assay relative to control; conditions: read-out: Activity
[9] = test system: LOX IMVI; experiment: Cytotoxicity against human LOXIMVI cells assessed as cell growth at 100 uM incubated for 48 hrs by sulforhodamine B assay relative to control; conditions: read-out: Activity
[10] = test system: SNB-19; experiment: Cytotoxicity against human SNB19 cells incubated for 48 hrs by sulforhodamine B assay; conditions: SNB-19, 48 h
[11] = test system: CCRF-CEM; experiment: Cytotoxicity against human CCRF-CEM cells assessed as cell growth at 1 uM incubated for 48 hrs by sulforhodamine B assay relative to control; conditions: read-out: Activity
[12] = test system: UACC-62; experiment: Cytotoxicity against human UACC62 cells assessed as cell growth at 0.1 uM incubated for 48 hrs by sulforhodamine B assay relative to control; conditions: UACC-62, 48 h, read-out: Activity
[13] = test system: SF-268; experiment: Cytotoxicity against human SF268 cells assessed as cell growth at 100 uM incubated for 48 hrs by sulforhodamine B assay relative to control; conditions: SF-268, 48 h, read-out: Activity
[14] = test system: HL-60(TB); experiment: Cytotoxicity against human HL-60(TB) cells assessed as cell growth at 0.1 uM incubated for 48 hrs by sulforhodamine B assay relative to control; conditions: HL-60, 48 h, read-out: Activity
[15] = test system: IGROV-1; experiment: Cytotoxicity against human IGROV1 cells assessed as cell growth at 1 uM incubated for 48 hrs by sulforhodamine B assay relative to control; conditions: IGROV-1, 48 h, read-out: Activity
[16] = test system: OVCAR-5; experiment: Cytotoxicity against human OVCAR5 cells incubated for 48 hrs by sulforhodamine B assay; conditions: OVCAR-5, 48 h
[17] = test system: HCT-116; experiment: Cytotoxicity against human HCT116 cells assessed as cell growth at 100 uM incubated for 48 hrs by sulforhodamine B assay relative to control; conditions: HCT-116, 48 h, read-out: Activity
[18] = test system: SF-539; experiment: Cytotoxicity against human SF539 cells assessed as cell growth at 0.01 uM incubated for 48 hrs by sulforhodamine B assay relative to control; conditions: SF-539, 48 h, read-out: Activity
[19] = test system: K562; experiment: Cytotoxicity against human K562 cells assessed as cell growth at 1 uM incubated for 48 hrs by sulforhodamine B assay relative to control; conditions: K562, 48 h, read-out: Activity
[20] = test system: HT-29; experiment: Cytotoxicity against human HT-29 cells assessed as cell growth at 0.01 uM incubated for 48 hrs by sulforhodamine B assay relative to control; conditions: HT-29, 48 h, read-out: Activity
[21] = test system: RPMI-8226; experiment: Cytotoxicity against human RPMI8226 cells assessed as cell growth at 100 uM incubated for 48 hrs by sulforhodamine B assay relative to control; conditions: RPMI-8226, 48 h, read-out: Activity
[22] = test system: MOLT-4; experiment: Cytotoxicity against human MOLT4 cells assessed as cell growth at 100 uM incubated for 48 hrs by sulforhodamine B assay relative to control; conditions: MOLT-4, 48 h, read-out: Activity
[23] = test system: SK-OV-3; experiment: Cytotoxicity against human SKOV3 cells incubated for 48 hrs by sulforhodamine B assay; conditions: SK-OV-3, 48 h
[24] = test system: BT-549; experiment: Cytotoxicity against human BT549 cells assessed as cell growth at 0.01 uM incubated for 48 hrs by sulforhodamine B assay relative to control; conditions: BT-549, 48 h, read-out: Activity
[25] = test system: OVCAR-4; experiment: Cytotoxicity against human OVCAR4 cells assessed as cell growth at 0.01 uM incubated for 48 hrs by sulforhodamine B assay relative to control; conditions: OVCAR-4, 48 h, read-out: Activity
[26] = test system: SN12C; experiment: Cytotoxicity against human SN12C cells assessed as cell growth at 1 uM incubated for 48 hrs by sulforhodamine B assay relative to control; conditions: read-out: Activity
[27] = test system: MDA-MB-435; experiment: Cytotoxicity against human MDA-MB-435 cells assessed as cell growth at 10 uM incubated for 48 hrs by sulforhodamine B assay relative to control; conditions: MDA-MB-435, 48 h, read-out: Activity
[28] = test system: SK-MEL-2; experiment: Cytotoxicity against human SK-MEL-2 cells assessed as cell growth at 1 uM incubated for 48 hrs by sulforhodamine B assay relative to control; conditions: SK-MEL-2, 48 h, read-out: Activity
[29] = test system: CAKI-1; experiment: Cytotoxicity against human Caki1 cells assessed as cell growth at 10 uM incubated for 48 hrs by sulforhodamine B assay relative to control; conditions: CAKI-1, 48 h, read-out: Activity
[30] = test system: ACHN; experiment: Cytotoxicity against human ACHN cells assessed as cell growth at 0.01 uM incubated for 48 hrs by sulforhodamine B assay relative to control; conditions: read-out: Activity
[31] = test system: SNB-75; experiment: Cytotoxicity against human SNB75 cells assessed as cell growth at 100 uM incubated for 48 hrs by sulforhodamine B assay relative to control; conditions: SNB-75, 48 h, read-out: Activity
[32] = test system: MDA-MB-468; experiment: Cytotoxicity against human MDA-MB-468 cells incubated for 48 hrs by sulforhodamine B assay; conditions: MDA-MB-468, 48 h

COc1ccc(-c2nocc2-c2cc(OC)c(OC)c(OC)c2)cc1 gave a growth at 10 µM [1] of 9%, a growth at 1 µM [2] of 38% and a growth at 1 µM [3] of 11%. The growth at 1 µM [4] was 14%, the growth at 0.01 µM [5] was 103% and the growth at 0.1 µM [6] was 55%. It also gave a growth at 1 µM [7] of 49%, a growth at 10 µM [8] of 21% and a growth at 100 µM [9] of -7%. For the same molecule, the GI50 ([10]; read-out: GI50) was 0.373 µM, the CC50 ([10]; read-out: LC50 (the source's name)) was > 100 µM and the TGI ([10]; read-out: TGI) was > 100 µM. For the same molecule, the GI50 ([10]; read-out: pGI50 (converted)) was 0.372 µM, the CC50 ([10]; read-out: pLC50 (the source's name) (converted)) was > 100 µM and the TGI ([10]; read-out: pTGI) was > 100 µM. For the same molecule, the growth at 1 µM [11] was 24%, the growth at 0.1 µM [12] was 36% and the growth at 100 µM [13] was 1%. The growth at 0.1 µM [14] was 25%, the growth at 1 µM [15] was 47% and the GI50 ([16]; read-out: GI50) was 1.65 µM. The LC50 ([16]; read-out: LC50) was > 100 µM, the TGI ([16]; read-out: TGI) was > 100 µM and the GI50 ([16]; read-out: pGI50 (converted)) was 1.66 µM. The LC50 ([16]; read-out: pLC50 (converted)) was > 100 µM, the TGI ([16]; read-out: pTGI) was > 100 µM and the growth at 100 µM [17] was -29%. It also gave a growth at 0.01 µM [18] of 86%, a growth at 1 µM [19] of 14% and a growth at 0.01 µM [20] of 98%. For the same molecule, the growth at 100 µM [21] was -17%, the growth at 100 µM [22] was 5% and the GI50 ([23]; read-out: GI50) was 0.296 µM. For the same molecule, the LC50 ([23]; read-out: LC50) was > 100 µM, the TGI ([23]; read-out: TGI) was > 100 µM and the GI50 ([23]; read-out: pGI50 (converted)) was 0.295 µM. For the same molecule, the LC50 ([23]; read-out: pLC50 (converted)) was > 100 µM, the TGI ([23]; read-out: pTGI) was > 100 µM and the growth at 0.01 µM [24] was 86%. It also gave a growth at 0.01 µM [25] of 86%, a growth at 1 µM [26] of 47% and a growth at 10 µM [27] of -29%. It also gave a growth at 1 µM [28] of 28%, a growth at 10 µM [29] of 36% and a growth at 0.01 µM [30] of 94%. The growth at 100 µM [31] was 9%, the GI50 ([32]; read-out: GI50) was 0.123 µM and the LC50 ([32]; read-out: LC50) was > 100 µM. The TGI ([32]; read-out: TGI) was 13.8 µM, the GI50 ([32]; read-out: pGI50 (converted)) was 0.123 µM and the LC50 ([32]; read-out: pLC50 (converted)) was > 100 µM. For the same molecule, the TGI ([32]; read-out: pTGI (converted)) was 13.8 µM.
